From patent US11434246B2, “EP4 antagonists” (Eisai R&D Management Co., Ltd., priority 2015, dated 2022)
pIC50: −log10 of the molar value.

molecular target: EP4 (Homo sapiens, UniProt P35408); test: EP4 Antagonism by CRE-PLAP Reporter Assay (SE302 cells, PGE2-stimulated); format: cell-based; design: HEK293 cells express endogenous EP4; endogenous in cells; host or cells: SE302 (HEK293 clone with CRE-PLAP reporter); details: SE302 (HEK293) cells, 3 ng/mL PGE2, overnight; single or multiple assay average values
Sequence (P35408 whole entry): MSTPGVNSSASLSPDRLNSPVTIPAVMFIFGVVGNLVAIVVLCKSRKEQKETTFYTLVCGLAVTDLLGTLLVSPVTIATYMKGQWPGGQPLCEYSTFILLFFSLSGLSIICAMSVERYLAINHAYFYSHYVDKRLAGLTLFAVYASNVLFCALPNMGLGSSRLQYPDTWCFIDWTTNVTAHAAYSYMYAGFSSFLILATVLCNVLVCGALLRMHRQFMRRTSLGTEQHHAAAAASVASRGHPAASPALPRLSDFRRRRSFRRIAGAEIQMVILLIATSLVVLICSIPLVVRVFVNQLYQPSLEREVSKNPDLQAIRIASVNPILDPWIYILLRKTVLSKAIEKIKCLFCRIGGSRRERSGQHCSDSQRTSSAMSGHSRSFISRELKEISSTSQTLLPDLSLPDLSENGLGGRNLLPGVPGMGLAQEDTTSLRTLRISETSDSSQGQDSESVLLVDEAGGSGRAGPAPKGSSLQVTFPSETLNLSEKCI
Source text: PGE2 and [^3H]-labelled PGE2 were purchased from Cayman Chemical (Ann Arbor, Mich.) and Perkin Elmer (Waltham, Mass.), respectively. Mouse breast 4T1 cells (CRL-2539) were obtained from American Tissue Culture Collection. SE302 cell line is a clone of the HEK293 cells containing cAMP response element (CRE) promoter that when activated drives secretion of placental-like alkaline phosphatase (PLAP). HEK293 cells express endogenous EP4 and show induction of PLAP in response to PGE2 and EP4 agonists, but not EP1, 2 or 3 agonists (Chen Q, Muramoto K, Masaaki N, Ding Y, Yang H, Mackey M, Li W, Inoue Y, Ackermann K, Shrota H, Matsumoto I, Spyvee M, Schiller S, Sumida T, Gusovsky F, and Lamphier M. A novel antagonist of the prostaglandin E2 EP4 receptor inhibits Th1 differentiation and Th17 expansion and is orally active in arthritis models. British J Pharmacol, 2010, 160: 292-310). BalB/C female mice at 7-8 week age were purchased from Jackson Laboratory (Bar Harbor, Me.). Mice were maintained under specific pathogen-free conditions.
EP4 Antagonism by CRE-PLAP Reporter Assay: SE302 cells were maintained in DMEM/F12 (50:50) (MediaTech) supplemented with 10% FBS (Tissue Culture Biologicals) plus penicillin/streptomycin. When used for assays, cells were plated in a 96-well plate at 2×10^4 cells/100 μL/well in serum-free assay medium (DMEM/F12 supplemented with 0.1% BSA plus penicillin/streptomycin) and incubated for 4-6 h. Cells were then stimulated with 3 ng/mL of PGE2 in the presence or absence of various concentrations of test compound overnight, and PLAP activity was measured by mixing 15 μL of culture supernatants with 75 μL of Lumi-phos (Lumigen, Inc.) and 60 μL of assay buffer containing 8 mmol/L MgSO4 in 0.1 mol/L carbonate-bicarbonate buffer pH11 in a new 96-well black plate and incubated for 2 h at room temperature. The intensity of luminescence, which reflected the PLAP activity in the supernatant, was quantified with an Envision 2101 Multilabel Reader. Values obtained from DMSO treated samples in the presence of PGE2 were defined as 100% of control, whereas values obtained from DMSO treated samples in the absence of PGE2 were defined as 0% of control. % of control for compound treated samples was calculated as follows: (actual reading−0% of control)/(100% of control−0% of control)×100. IC50 value for each individual experiment was calculated using GraphPad Prism 6.02 (Lake Forest, Calif.) with % of control values.
Compounds of the present invention were assayed according to the methods as described above, and IC50 values, which may be single assay values or multiple assay average values, are summarized in Table 1. Compounds marked “ABS” show absolute stereochemistry.

SMILES | pIC50
C[C@H](NC(=O)c1c(C(F)(F)F)nn2c1N(c1cccc(Cl)c1)CC2)c1ccc(C(=O)O)cc1 [Compound 49, (S)-4-(1-(1-(3-chlorophenyl)-6-(trifluoromethyl)-2,3-dihydro-1H-imidazo[1,2-b]pyrazole-7-carboxamido)ethyl)benzoic Acid] | 7.00
C[C@H](NC(=O)c1c(C(F)(F)F)nn2c1N(c1ccc(Cl)cc1)CC2)c1ccc(C(=O)O)cc1 [Compound 50, (S)-4-(1-(1-(4-chlorophenyl)-6-(trifluoromethyl)-2,3-dihydro-1H-imidazo[1,2-b]pyrazole-7-carboxamido)ethyl)benzoic Acid] | 7.04
C[C@H](NC(=O)c1c(C(F)(F)F)nn2c1N(c1ccc(C(F)(F)F)cc1)CCC2)c1ccc(C(=O)O)cc1 [Compound 51, (S)-4-(1-(2-(trifluoromethyl)-4-(4-(trifluoromethyl)phenyl)-4,5,6,7-tetrahydropyrazolo[1,5-a]pyrimidine-3-carboxamido)ethyl)benzoic Acid] | 7.00
C[C@H](NC(=O)c1c(C(F)(F)F)nn2c1N(Cc1cccc(C(F)(F)F)c1)CC2)c1ccc(C(=O)NC#N)cc1 [Compound 52, (S)—N-(1-(4-(cyanocarbamoyl)phenyl)ethyl)-6-(trifluoromethyl)-1-(3-(trifluoromethyl)benzyl)-2,3-dihydro-1H-imidazo[1,2-b]pyrazole-7-carboxamide] | 10.15
C[C@H](NC(=O)c1c(C(F)(F)F)nn2c1N(Cc1cccc(C(F)(F)F)c1)CC2)c1ccc(C(=O)NS(=O)(=O)c2ccc(F)c(F)c2)cc1 [Compound 53, (S)—N-(1-(4-(((3,4-difluorophenyl)sulfonyl)carbamoyl)phenyl)ethyl)-6-(trifluoromethyl)-1-(3-(trifluoromethyl)benzyl)-2,3-dihydro-1H-imidazo[1,2-b]pyrazole-7-carboxamide] | 8.41
C[C@H](NC(=O)c1c(C(F)(F)F)nn2c1N(Cc1cccc(OC(F)(F)F)c1)CC2)c1ccc(C(=O)NS(=O)(=O)c2ccccc2)cc1 [Compound 54, (S)—N-(1-(4-((phenylsulfonyl)carbamoyl)phenyl)ethyl)-1-(3-(trifluoromethoxy)benzyl)-6-(trifluoromethyl)-2,3-dihydro-1H-imidazo[1,2-b]pyrazole-7-carboxamide] | 7.66
C[C@H](NC(=O)c1c(C(F)(F)F)nn2c1N(Cc1cccc(C(F)(F)F)c1)CC2)c1ccc(C(=O)NS(C)(=O)=O)cc1 [Compound 55, (S)—N-(1-(4-((methylsulfonyl)carbamoyl)phenyl)ethyl)-6-(trifluoromethyl)-1-(3-(trifluoromethyl)benzyl)-2,3-dihydro-1H-imidazo[1,2-b]pyrazole-7-carboxamide] | 7.41
C[C@H](NC(=O)c1c(C(F)(F)F)nn2c1N(Cc1cccc(C(F)(F)F)c1)CC2)c1ccc(C(=O)NS(=O)(=O)C2CC2)cc1 [Compound 56, (S)—N-(1-(4-((cyclopropylsulfonyl)carbamoyl)phenyl)ethyl)-6-(trifluoromethyl)-1-(3-(trifluoromethyl)benzyl)-2,3-dihydro-1H-imidazo[1,2-b]pyrazole-7-carboxamide] | 7.14
C[C@H](NC(=O)c1c(C(F)(F)F)nn2c1N(Cc1ccc(C(F)(F)F)cc1)CC2)c1ccc(C2CC2)cc1 [Compound 57, (S)—N-(1-(4-cyclopropylphenyl)ethyl)-6-(trifluoromethyl)-1-(4-(trifluoromethyl)benzyl)-2,3-dihydro-1H-imidazo[1,2-b]pyrazole-7-carboxamide] | 6.51
Cc1cc([C@H](C)NC(=O)c2c(C(F)(F)F)nn3c2N(Cc2ccc(C(F)(F)F)cc2)CC3)ccc1-c1nn[nH]n1 [Compound 58, (S)—N-(1-(3-methyl-4-(2H-tetrazol-5-yl)phenyl)ethyl)-6-(trifluoromethyl)-1-(4-(trifluoromethyl)benzyl)-2,3-dihydro-1H-imidazo[1,2-b]pyrazole-7-carboxamide] | 8.33
CCc1nn2c(c1C(=O)N[C@@H](C)c1ccc(C(=O)O)cc1)N(Cc1cccc(C(F)(F)F)c1)CC2 [Compound 59, (S)-4-(1-(6-ethyl-1-(3-(trifluoromethyl)benzyl)-2,3-dihydro-1H-imidazo[1,2-b]pyrazole-7-carboxamido)ethyl)benzoic acid] | 9.17
C[C@H](NC(=O)c1c(-c2ccccc2)nn2c1N(Cc1cccc(C(F)(F)F)c1)CC2)c1ccc(C(=O)O)cc1 [Compound 60, (S)-4-(1-(6-phenyl-1-(3-(trifluoromethyl)benzyl)-2,3-dihydro-1H-imidazo[1,2-b]pyrazole-7-carboxamido)ethyl)benzoic Acid] | 8.12
C[C@H](NC(=O)c1c(C(F)(F)F)nn2c1N(Cc1ccccc1Cl)CCC2)c1ccc(C(=O)O)cc1 [Compound 61, (S)-4-(1-(4-(2-chlorobenzyl)-2-(trifluoromethyl)-4,5,6,7-tetrahydropyrazolo[1,5-a]pyrimidine-3-carboxamido)ethyl)benzoic Acid] | 7.00
CSc1cc(CN2CCn3nc(C(F)(F)F)c(C(=O)N[C@@H](C)c4ccc(C(=O)O)cc4)c32)cc(C(F)(F)F)c1 [Compound 62, (S)-4-(1-(1-(3-(methylthio)-5-(trifluoromethyl)benzyl)-6-(trifluoromethyl)-2,3-dihydro-1H-imidazo[1,2-b]pyrazole-7-carboxamido)ethyl)benzoic Acid] | 9.24
C[C@H](NC(=O)c1c(C(F)(F)F)nn2c1N(Cc1ccc(Cl)c(C(F)(F)F)c1)CC2)c1ccc(C(=O)O)cc1 [Compound 63, (S)-4-(1-(1-(4-chloro-3-(trifluoromethyl)benzyl)-6-(trifluoromethyl)-2,3-dihydro-1H-imidazo[1,2-b]pyrazole-7-carboxamido)ethyl)benzoic acid] | 8.89
C[C@H](NC(=O)c1c(C(F)(F)F)nn2c1N(Cc1cccc(CO)c1)CC2)c1ccc(C(=O)O)cc1 [Compound 64, (S)-4-(1-(1-(3-(hydroxymethyl)benzyl)-6-(trifluoromethyl)-2,3-dihydro-1H-imidazo[1,2-b]pyrazole-7-carboxamido)ethyl)benzoic acid] | 9.09
C[C@H](NC(=O)c1c(C(F)(F)F)nn2c1N(Cc1cccc(CCl)c1)CC2)c1ccc(C(=O)O)cc1 [Compound 65, (S)-4-(1-(1-(3-(chloromethyl)benzyl)-6-(trifluoromethyl)-2,3-dihydro-1H-imidazo[1,2-b]pyrazole-7-carboxamido)ethyl)benzoic acid] | 9.03
C[C@H](NC(=O)c1c(C(F)(F)F)nn2c1N(Cc1cccc(CN3CCn4nc(C(F)(F)F)c(C(=O)N[C@@H](C)c5ccc(C(=O)O)cc5)c43)c1)CC2)c1ccc(C(=O)O)cc1 [Compound 66, 4,4′-((1S,1′S)-((1,1′-(1,3-phenylenebis(methylene))bis(6-(trifluoromethyl)-2,3-dihydro-1H-imidazo[1,2-b]pyrazole-1,7-diyl-7-carbonyl))bis(azanediyl))bis(ethane-1,1-diyl))dibenzoic Acid] | 7.45
C[C@H](NC(=O)c1c(C(F)(F)F)nn2c1N(Cc1cccc(CF)c1)CC2)c1ccc(C(=O)O)cc1 [Compound 67, (S)-4-(1-(1-(3-(fluoromethyl)benzyl)-6-(trifluoromethyl)-2,3-dihydro-1H-imidazo[1,2-b]pyrazole-7-carboxamido)ethyl)benzoic Acid] | 8.92
C[C@H](NC(=O)c1c(C(F)(F)F)nn2c1N(Cc1ccc(I)c(C(F)(F)F)c1)CC2)c1ccc(C(=O)O)cc1 [Compound 68, (S)-4-(1-(1-(4-iodo-3-(trifluoromethyl)benzyl)-6-(trifluoromethyl)-2,3-dihydro-1H-imidazo[1,2-b]pyrazole-7-carboxamido)ethyl)benzoic acid] | 7.96
C[C@H](NC(=O)c1c(C(F)(F)F)nn2c1N(Cc1cccc(I)c1)CC2)c1ccc(C(=O)O)cc1 [Compound 69, (S)-4-(1-(1-(3-iodobenzyl)-6-(trifluoromethyl)-2,3-dihydro-1H-imidazo[1,2-b]pyrazole-7-carboxamido)ethyl)benzoic acid] | 9.15
C[C@H](NC(=O)c1c(C(F)(F)F)nn2c1N(Cc1ccccc1)CC2)c1ccc(C(=O)O)cc1 [Compound 70, (S)-4-(1-(1-benzyl-6-(trifluoromethyl)-2,3-dihydro-1H-imidazo[1,2-b]pyrazole-7-carboxamido)ethyl)benzoic acid] | 9.08
